For test [1], the system named is HepG2 fatty liver cells (induced with oleic acid). In words: Reduction of TG content in oleic acid-induced HepG2 fatty liver cells. It is filed as cell-based, human. Particulars: for inhibition at 1 µM: Homo sapiens, read-out: TG reduction rate. As for the experimental part: The activity of the various compounds of the present invention in reduction of fat content was analyzed by using human hepatoma cell line Hep G2.
HepG2 cell lines (15×10^6 cells) were cultured in DMEM culture No. B, incubated in an incubator with 5% CO2 at 37° C. for 24 hours, cultured in DMEM culture No. C (serum-free medium) for 24 hours, and finally cultured in DMEM culture No. D (containing oleate/albumin complex) for another 48 hours to induce HepG2 cell lines to form fatty liver cells.
HepG2 cell lines were divided into six groups, including: (1) Blank: no treatment; (2) DMSO group: cells from Blank were treated with dimethyl sulfoxide (DMSO); (3) Control: induction with oleic acid to form fatty liver cells; (4) Vehicle group: fatty liver cells formed by induction with oleic acid were treated with DMSO; (5) Positive control: fatty liver cells were treated with silymarin; and (6) Test Group: fatty liver cells were treated with various compounds of the present invention.
After incubation for 72 hours, the treated cells from each group were successively washed twice with PBS, and then incubated with 0.5 ml of trypsin/EDTA for 3 minutes. Afterwards, the cells were scraped with 2 ml of PBS and then transferred to the centrifuge tube to be shattered by ultrasonic. 20 μl of the cell extracts was taken to determine the content of protein. TG determination was performed using commercially available combination of agents (Randox). The TG content obtained above was divided by the protein content to obtain a ratio, representing a relative TG content in the cells.
The equation for calculating reduction rate (%) of TG was as follows: [1−(TG content of Test Group−TG content of Blank)/(TG content of Oleic acid induction Group−TG content of Blank)]×100%.

For test [2], the system named is B6 mice fed with high fat feed (fatty liver). Put plainly: Liver lipids (TG, TC in liver) in mice with induced fatty liver. It is filed as in vivo. On the procedure:
(§1) B6 mice recommended in the specification “Method for evaluating the liver protection and health care efficacies of health food” announced by the Department of Health were chosen for animal testing. More than four (4) mice were used in each group of the pre-test, while more than twelve (12) mice were used in each group of the confirmatory test. Male mice bred at 23±2° C. in an animal room with 55±15% relative humidity under normal light/dark cycle (7:00 AM-7:00 PM lights on/7:00 PM-7:00 AM lights off) and weighing 18-23 g were purchased from BioLASCO (Taipei) and housed at Laboratory Animal Center in National Defense Medical Center. The animal test was carried out according to the guideline for animal experiment of National Health Research Institutes. Mice were fed with normal feed at 3-5 g/day and unlimited supply of water for 1-2 weeks and investigated for health condition. The weight of mice was recorded once a week.
(§2) The tested animals were grouped randomly into Blank, High Fat Diet control (HFD), Positive Control (PS), and Test group. The animals of Blank were fed with normal feed. The animals of HFD were fed with high fat feed. The animals of PS were fed with high fat feed, and additionally fed with silymarin (5 mg/kg/day) by a tube. The animals of Test group were fed with high fat feed, and additionally force-fed with test compounds by a tube.
(§3) The animals of Blank were fed casually with normal feed for 12 weeks, while the animals of HFD, PS, and Test group were fed casually with high fat feed for 12 weeks. After 8 weeks of feeding, the animals of Blank and HFD were fed with deionized water by a tube once a day; the animals of PS were fed with silymarin by a tube once a day; and the animals of Test Group were fed with test compounds by a tube once a day for a duration of 4 or 8 weeks.
In addition, abdominal fat and liver specimens were taken from the abdomens of sacrificed mice and weighted to compare the weight of fat and liver and obtain a ratio of liver weight to body weight. Two tissue blocks with a volume of approximately 1 cm^3 were cut from the largest right lobe of liver, fixed in 10% neutral formalin solution, and then embedded with paraffin for sectioning and H&E staining for histopathological observation. Moreover, the rest of the liver was frozen for preservation and detection of the contents of triglyceride and total cholesterol in the liver. Furthermore, the liver function of animals of each group were analyzed by Galactose Single Point Method, which was recognized and recommended for quantification of remaining liver function in clinical use by U.S. FDA and Ministry of Health and Welfare, Taiwan. At the end of the tests, 0.5 g of galactose (G.S.P.® 0.4 g/mL) per kg of animal was administered via intravenous. One hour after the administration, about 0.5 ml of whole blood was taken by using a filter paper to evaluate liver function of mice. The higher the value of GSP was, the worse the remaining liver function would be (FDA: “Guidance for Industry: Pharmacokinetics in Patients with Impaired. Hepatic Function—Study Design, Data Analysis and Impact on Dosing and. Labeling. 2003).

The test system is the same in test [3]. In words: Serum ALT and AST (liver dysfunction) in mice with induced fatty liver. Type of test: in vivo. As for the experimental part:
as §1, §2, §3
Before testing and in the eighth (8th), twelfth (12th), and sixteenth (16th) week after testing, blood was collected from the cheek or the heart. At the end of testing, all mice were weighted and then sacrificed, and blood was collected from the cheek or the heart simultaneously. The blood specimens of mice was placed at room temperature for one hour to clot, and then the serum was separated by centrifugation in a refrigeration centrifuge at 15,700×g at 4° C. for 5 minutes. Afterwards, biochemical indices of liver function, including aspartate transaminase (AST), alanine aminotransferase (ALT), triglyceride (TG), total cholesterol (TCHO/TC), low-density lipoprotein cholesterol (LDL-C), and high-density lipoprotein cholesterol (HDL-C), were detected by the automatic blood biochemistry analyzer.

Where [4] appears, read: 72 h, tested substances 1.0 uM, fatty liver cells from HepG2.

Read-outs that look alike come from different tables or passages of the source.

In the case of `C=C[C@H]1[C@H](O[C@@H]2O[C@H](CO)[C@@H](O)[C@H](O)[C@H]2O)OC=C2C(=O)OCC[C@]21O` [swrtiamarin, swertiamarin], in test [1] (setting [4]), the inhibition at 1 µM amounted to 6.72 ± 11%.

For `CC(C)[C@@H](C)/C=C/[C@@H](C)[C@H]1CC[C@H]2C3=CC=C4C[C@@H](O)CC[C@]4(C)[C@H]3CC[C@]12C` [ergosterol], the inhibition at 1 µM in test [1] (setting [4]) is 34.2 ± 3.69%.

Regarding `C[C@@H]1O[C@@H](O[C@H]2[C@H](Oc3cc(O)c4c(c3)O[C@H](c3ccc(O)cc3)CC4=O)O[C@H](CO)[C@@H](O)[C@@H]2O)[C@H](O)[C@H](O)[C@H]1O` [naringin], the inhibition at 1 µM in test [1] (setting [4]) was 12.7 ± 3.72%.

Take `C[C@H]1[C@H](C)CC[C@]2(C(=O)O)CC[C@]3(C)C(=CC[C@@H]4[C@@]5(C)CC[C@H](O)C(C)(C)[C@@H]5CC[C@]43C)[C@H]12` [ursolic Acid]: the inhibition at 1 µM in test [1] (setting [4]) turned out to be 35.9 ± 8.92%.

Regarding `CC(Cc1ccc(O)c(O)c1)C(C)Cc1ccc(O)c(O)c1` (stereo not drawn) [nordihydroguaiaretic acid], the inhibition at 1 µM in test [1] (setting [4]) was 15.9 ± 2.3%.

For (−)-epicatechin-3-gallate, in test [1] (tested substances 1.0 uM, fatty liver cells from HepG2), the TG reduction rate is 32.7 ± 4.33%.

For the molecule `OC[C@@H](O)[C@@H](O)[C@H](O)[C@@H](O)CO` [sorbitol], in test [1] (setting [4]), the inhibition at 1 µM amounted to 20.1 ± 2.57%.

Consider `C/C=C/C=C/C(=O)O` [sorbic acid], for which the inhibition at 1 µM in test [1] (setting [4]) was 2.03 ± 1.96%.

For `O=C(O)[C@H]1O[C@@H](Oc2cc3oc(-c4ccccc4)cc(=O)c3c(O)c2O)[C@H](O)[C@@H](O)[C@@H]1O` [baicalin], the inhibition at 1 µM in test [1] (setting [4]) amounted to 9.21 ± 6.21%.

Take `C=CC(=C)CCC=C(C)C` [β-myrcene]: in test [1] (setting [4]), the inhibition at 1 µM is 34 ± 11.2%.

With `COc1ccc(-c2coc3cc(O)ccc3c2=O)cc1` [formononetin], the inhibition at 1 µM in test [1] (setting [4]) stood at 29.6 ± 1.44%.

As to `O=C(CCc1ccc(O)cc1)c1c(O)cc(O)cc1O[C@@H]1O[C@H](CO)[C@@H](O)[C@H](O)[C@H]1O` [phloridzin], in test [1] (setting [4]), the inhibition at 1 µM is 42.4 ± 6.05%.

For the molecule `COc1cc(C2Oc3cc([C@H]4Oc5cc(O)cc(O)c5C(=O)[C@@H]4O)ccc3OC2CO)ccc1O` (stereo partly drawn) [silybin], the inhibition at 1 µM in test [1] (setting [4]) amounted to 30.3 ± 3.24%.

As to `COc1ccc(-c2cc(=O)c3c(OC)c(OC)c(OC)cc3o2)cc1OC` [sinensetin], the inhibition at 1 µM in test [1] (setting [4]) is 37 ± 4.84%.

On to `COc1ccc([C@@H]2CC(=O)c3c(O)cc(O[C@@H]4O[C@H](CO)[C@@H](O)[C@H](O)[C@H]4O[C@@H]4O[C@@H](C)[C@H](O)[C@@H](O)[C@H]4O)cc3O2)cc1` [poncirin], for which the inhibition at 1 µM in test [1] (setting [4]) worked out at 38.1 ± 7.22%.

In the case of `O=C(O)CC(O)(CC(=O)O)C(=O)O` [citric acid], the inhibition at 1 µM in test [1] (setting [4]) stood at 2.55 ± 4.43%.

In the case of `O=c1cc(-c2ccccc2)oc2cc(O)c(O)c(O)c12` [baicalein], the inhibition at 1 µM in test [1] (setting [4]) came out at 7.09 ± 10.9%.

In the case of `O=C(O)c1ccc(O)c(O)c1` [protocatechuic acid], the inhibition at 1 µM in test [1] (HepG2, 72 h) came out at 18.6 ± 7.6%.

As for `CC/C=C\C/C=C\C/C=C\C/C=C\C/C=C\CCCC(=O)O` [eicosapentaenoic acid (EPA), eicosapentaenoic acid], the inhibition at 1 µM in test [1] (setting [4]) amounted to 26.1 ± 6.14%.

Take `OCC(O)CO` [glycerrin, glycerin]: the inhibition at 1 µM in test [1] (setting [4]) turned out to be 16.2 ± 4.25%.

In the case of `O=C1c2c(O)cc(O)cc2O[C@H](c2ccc(O)c(O)c2)[C@H]1O` [(+)-taxifolin], in test [1] (setting [4]), the inhibition at 1 µM was found to be 17.9 ± 8.35%.

With `O=c1c(O[C@@H]2O[C@H](CO)[C@H](O)[C@H](O)[C@H]2O)c(-c2ccc(O)c(O)c2)oc2cc(O)cc(O)c12` [hyperoside], the inhibition at 1 µM in test [1] (setting [4]) turned out to be 30.5 ± 2.8%.

For the molecule `O=C(O)/C=C/c1ccccc1` [trans-Cinnamic Acid], in test [1] (setting [4]), the inhibition at 1 µM was 15.8 ± 0.82%.

Take `COc1ccc(-c2cc(=O)c3c(O)cc(O[C@@H]4O[C@H](CO[C@@H]5O[C@@H](C)[C@H](O)[C@@H](O)[C@H]5O)[C@@H](O)[C@H](O)[C@H]4O)cc3o2)cc1O` [diosmin]: the inhibition at 1 µM in test [1] (setting [4]) came out at 11.9 ± 3.73%.

Consider `OC[C@@H](O)[C@H](O)[C@@H](O)CO` [xylitol], for which the inhibition at 1 µM in test [1] (setting [4]) is 7.36 ± 6.34%.

As to `O=c1c(-c2ccc(O)cc2)coc2cc(O)ccc12` [daidzein], the inhibition at 1 µM in test [1] (setting [4]) is 42.3 ± 5.34%.

Regarding `O=c1ccc2ccc(O)cc2o1` [umbelliferone], in test [1] (setting [4]), the inhibition at 1 µM was 17.4 ± 2.57%.

Regarding `O=c1cc(-c2ccc(O)cc2)oc2cc(O)c([C@@H]3O[C@H](CO)[C@@H](O)[C@H](O)[C@H]3O)c(O)c12` [isovitexin], the inhibition at 1 µM in test [1] (setting [4]) is 35.9 ± 3.35%.

Regarding `CCCCCCCCCCCCOS(=O)(=O)[O-].[Na+]` [sodium lauryl sulfate], the inhibition at 1 µM in test [1] (setting [4]) is 38.7 ± 4.65%.

As for `O=C1NS(=O)(=O)c2ccccc21` [saccharin], in test [1] (setting [4]), the inhibition at 1 µM worked out at 17.5 ± 6.96%. The “effect on TC in liver (in words)” value in test [2] is listed as “reduces TC in liver significantly”. In test [3], the “effect on ALT and AST values (in words)” value was “can significantly reduce ALT and AST values”.

With `CC1(C)[C@@H](O[C@H]2O[C@H](C(=O)O)[C@@H](O)[C@H](O)[C@H]2O[C@@H]2O[C@H](C(=O)O)[C@@H](O)[C@H](O)[C@H]2O)CC[C@]2(C)[C@H]3C(=O)C=C4[C@@H]5C[C@@](C)(C(=O)O)CC[C@]5(C)CC[C@@]4(C)[C@]3(C)CC[C@@H]12` [glycyrrhizin], the inhibition at 1 µM in test [1] (setting [4]) stood at 10.6 ± 7.4%.

Take `C[C@@H]1O[C@@H](Oc2c(-c3ccc(O)c(O)c3)oc3cc(O)cc(O)c3c2=O)[C@H](O)[C@H](O)[C@H]1O` [quercitrin]: the inhibition at 1 µM in test [1] (HepG2, 72 h) worked out at 9.15 ± 9.24%.

With `CCCCCCCCCCCCCC(=O)OCC` [myristic acid ethyl ester], in test [1] (setting [4]), the inhibition at 1 µM was 28.9 ± 3.91%.

Take `O=c1c(O)c(-c2ccccc2)oc2cc(O)cc(O)c12` [galangin]: the inhibition at 1 µM in test [1] (setting [4]) stood at 28.1 ± 8.62%.

As to `O=c1cc(-c2ccc(O)c(O)c2)oc2cc(O)cc(O)c12` [luteolin], the inhibition at 1 µM in test [1] (setting [4]) came out at 6.95 ± 15.2%.

As for `O=c1c(O)c(-c2ccc(O)cc2O)oc2cc(O)cc(O)c12` [morin], the inhibition at 1 µM in test [1] (setting [4]) was 25.8 ± 10.7%.

`O=c1c(O)c(-c2ccc(O)cc2)oc2cc(O)cc(O)c12` [kaempferol]: the inhibition at 1 µM in test [1] (setting [4]) was determined as 36.5 ± 4.78%.

The record behind these values is patent US10925854B2, “Methods and compositions for preventing or treating fatty liver, protecting liver function or ameliorating liver diseases caused by fatty liver or other associated disorders” (SINEW PHARMA INC., priority 2015, dated 2021).
